Results: patent US12479827B2, “Heteroaromatic carboxamide derivatives as plasma kallikrein inhibitors” (Boehringer Ingelheim International GmbH, priority 2020, dated 2025)

Experiments:
Human PKK = target: T1, Human PKK (Homo sapiens, UniProt P03952); experiment: Inhibition of PKK using an endpoint assay (human PKK); format: biochemical; details: fluorogenic substrate H-Pro-Phe-Arg-AMC, 1 h room temperature, method names human or rat PKK, table does not say which
T1 construct: purchased Enzyme Research Laboratories
T1 sequence (P03952 20-390 limits assumed): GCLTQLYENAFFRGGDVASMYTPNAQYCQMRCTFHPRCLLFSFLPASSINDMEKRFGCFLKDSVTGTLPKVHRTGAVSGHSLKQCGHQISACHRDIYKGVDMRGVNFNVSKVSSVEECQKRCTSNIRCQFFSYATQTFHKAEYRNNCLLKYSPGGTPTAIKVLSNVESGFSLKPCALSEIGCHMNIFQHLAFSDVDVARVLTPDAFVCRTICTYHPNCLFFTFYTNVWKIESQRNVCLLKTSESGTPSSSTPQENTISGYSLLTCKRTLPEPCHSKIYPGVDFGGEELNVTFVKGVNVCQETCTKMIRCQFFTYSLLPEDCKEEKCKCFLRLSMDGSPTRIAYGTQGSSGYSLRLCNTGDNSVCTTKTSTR
T1 sequence (P03952 391-638 limits assumed): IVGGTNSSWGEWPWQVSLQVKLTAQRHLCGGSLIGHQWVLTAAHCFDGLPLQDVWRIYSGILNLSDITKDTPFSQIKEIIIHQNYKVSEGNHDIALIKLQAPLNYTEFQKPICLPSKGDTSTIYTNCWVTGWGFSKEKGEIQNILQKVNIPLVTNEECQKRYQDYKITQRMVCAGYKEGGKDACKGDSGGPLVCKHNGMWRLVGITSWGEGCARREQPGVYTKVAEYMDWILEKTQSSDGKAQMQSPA
Outline: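 Endpoint fluorescence (ex 355 nm, em 460 nm) after stopping with 1 μM final PPACK II. Buffer: Tris 100 mM pH 7.8, NaCl 150 mM, BSA 0.1%, Tween20 0.05%, with 1% DMSO present; enzyme is human plasma kallikrein.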

[1] = target: T2, PKK in kaolin activated human platelet poor plasma (Homo sapiens, UniProt P03952); experiment: Inhibition of PKK in kaolin activated human PPP; format: biochemical; details: 25-750 μg/mL kaolin, global fit, text b200 calls the values IC90;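 note: readout is the rate of fluorogenic substrate cleavage in rfu per min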
T2 construct: Platelet poor plasma (PPP) obtained from human wholeblood; from tissue
T2 sequence (P03952 391-638 limits assumed): as above
T2 sequence (P03952 20-390 limits assumed): as the sequence (P03952 20-390 limits assumed) above
Method: Platelet poor plasma (PPP) obtained from human wholeblood, anticoagulated with Na-Citrate, is incubated with various concentrations of the test compound together with either 25, 75, 250, or 750 μg/mL kaolin in assay buffer for 20 min at 37° C. such that for each kaolin dose used a concentration response is obtained for the test compound.

SMILES | IC50 (Human PKK) [nM] | IC50 [1] [nM]
Cn1cnc2c1CC[C@H]2NC(=O)c1cn(Cc2ccc(N3CC4CC4C3)cn2)nn1 (stereo partly drawn) [Example 8, 1-[(5-{3-Azabicyclo[3.1.0]hexan-3-yl}pyridin-2-yl)methyl]-N-[(4R)-1-methyl-1H,4H,5H,6H-cyclopenta[d]imidazol-4-yl]-1H-1,2,3-triazole-4-carboxamide] | 2.3 | 352
Cn1cnc2c1CC[C@H]2NC(=O)c1cn(Cc2ccc(N3CC4C(C3)C4(F)F)nc2CO)cn1 (some centres unmarked) [Example 96] | 1.5 | 134
Cn1cnc2c1CC[C@H]2NC(=O)c1cnn(Cc2ccc(N3CC4(CC4)C3)nc2F)c1 [Example 12, 1-[(6-{5-Azaspiro[2.3]hexan-5-yl}-2-fluoropyridin-3-yl)methyl]-N-[(4R)-1-methyl-1H,4H,5H,6H-cyclopenta[d]imidazol-4-yl]-1H-pyrazole-4-carboxamide] | 3.4 | 802
CCc1nc(N2C[C@@H]3[C@H](C)[C@@H]3C2)ccc1Cn1cnc(C(=O)N[C@@H]2CCc3c2ncn3C)c1 [Example 143, 1-({2-Ethyl-6-[(1R,5S,6R)-6-methyl-3-azabicyclo[3.1.0]hexan-3-yl]pyridin-3-yl}methyl)-N-[(4R)-1-methyl-1H,4H,5H,6H-cyclopenta-[d]imidazol-4-yl]-1H-imidazole-4-carboxamide] | 0.6 | 1170
Cc1nc(N2CC3CC3C2)ccc1Cc1cc(C(=O)N[C@@H]2CCc3c2ncn3C)n(C)n1 (stereo partly drawn) [Example 168, 3-[(6-{3-Azabicyclo[3.1.0]hexan-3-yl}-2-methylpyridin-3-yl)methyl]-1-methyl-N-[(4R)-1-methyl-1H,4H,5H,6H-cyclopenta[d]imidazol-4-yl]-1H-pyrazole-5-carboxamide] | 1.5 | 1860
Cn1cnc2c1CC[C@H]2NC(=O)c1cnn(Cc2ccc(N3CC4(CC4)C3)nc2Br)c1 [Example 13, 1-[(6-{5-Azaspiro[2.3]hexan-5-yl}-2-bromopyridin-3-yl)methyl]-N-[(4R)-1-methyl-1H,4H,5H,6H-cyclopenta[d]imidazol-4-yl]-1H-pyrazole-4-carboxamide] | 1.1 | 451
Cn1cnc2c1CC[C@H]2NC(=O)c1cnn(Cc2ccc(N3CC4(CC4)C3)nc2)c1 [Example 73, 1-[(6-{5-Azaspiro[2.3]hexan-5-yl}pyridin-3-yl)-methyl]-N-[(4R)-1-methyl-1H,4H,5H,6H-cyclopenta[d]imidazol-4-yl]-1H-pyrazole-4-carboxamide] | 9.6 | 498
Cc1nc(N2CC3C(C2)C3(F)F)ccc1Cc1ccc(C(=O)N[C@@H]2CCc3c2ncn3C)s1 (stereo partly drawn) [Example 187, 5-[(6-{6,6-Difluoro-3-azabicyclo[3.1.0]hexan-3-yl}-2-methylpyridin-3-yl)methyl]-N-[(4R)-1-methyl-1H,4H,5H,6H-cyclopenta[d]imidazol-4-yl]thiophene-2-carboxamide] | 12.2 | 2450

Other lines, results leading:

IC50 (Human PKK) [nM] | IC50 [1] [nM] | SMILES
1.4 | 110 | Cn1cnc2c1CC[C@H]2NC(=O)c1cnn(Cc2ccc(N3CC4C(C3)C4(F)F)nc2CO)c1 (stereo partly drawn) [Example 93, 1-[(6-{6,6-Difluoro-3-azabicyclo[3.1.0]hexan-3-yl}-2-(hydroxymethyl)pyridin-3-yl)methyl]-N-[(4R)-1-methyl-1H,4H,5H,6H-cyclopenta-[d]imidazol-4-yl]-1H-pyrazole-4-carboxamide]
0.7 | 245 | Cn1cnc2c1CC[C@H]2NC(=O)c1cc(Cc2ccc(N3CC4C(C3)C4(F)F)nc2C(F)F)no1 (stereo partly drawn) [Example 145, 3-[(6-{6,6-Difluoro-3-azabicyclo[3.1.0]hexan-3-yl}-2-(difluoromethyl)pyridin-3-yl)methyl]-N-[(4R)-1-methyl-1H,4H,5H,6H-cyclopenta-[d]imidazol-4-yl]-1,2-oxazole-5-carboxamide]
0.8 | 797 | Cc1nc(N2CC3CC3C2)ccc1Cn1cc(C(=O)N[C@@H]2CCc3c2ncn3C)c(C#N)n1 (stereo partly drawn) [Example 70, 1-[(6-{3-Azabicyclo[3.1.0]hexan-3-yl}-2-methylpyridin-3-yl)methyl]-3-cyano-N-[(4R)-1-methyl-1H,4H,5H,6H-cyclopenta[d]imidazol-4-yl]-1H-pyrazole-4-carboxamide]
3.1 | 808 | Cc1cc(N2CC3C(C2)C3(F)F)ccc1Cn1cc(C(=O)N[C@@H]2CCc3c2ncn3C)cn1 (stereo partly drawn) [Example 199, 1-[(4-{6,6-difluoro-3-azabicyclo[3.1.0]hexan-3-yl}-2-methylphenyl)methyl]-N-[(4R)-1-methyl-1H,4H,5H,6H-cyclopenta[d]imidazol-4-yl]-1H-pyrazole-4-carboxamide]
0.7 | 839 | CCCc1nc(N2CC3C(C2)C3(F)F)ccc1Cn1cnc(C(=O)N[C@@H]2CCc3c2ncn3C)c1 (stereo partly drawn) [Example 66, 1-[(6-{6,6-Difluoro-3-azabicyclo[3.1.0]hexan-3-yl}-2-propylpyridin-3-yl)methyl]-N-[(4R)-1-methyl-1H,4H,5H,6H-cyclopenta[d]imidazol-4-yl]-1H-imidazole-4-carboxamide]
1.2 | 430 | Cc1nc(N2CC3C(C2)C3(F)F)ccc1Cc1cc(C(=O)N[C@@H]2CCc3c2ncn3C)on1 (stereo partly drawn) [Example 152, 3-[(6-{6,6-Difluoro-3-azabicyclo[3.1.0]hexan-3-yl}-2-methylpyridin-3-yl)methyl]-N-[(4R)-1-methyl-1H,4H,5H,6H-cyclopenta[d]imidazol-4-yl]-1,2-oxazole-5-carboxamide]
1.3 | 117 | Cn1cnc2c1CC[C@H]2NC(=O)c1cnn(Cc2ccc(N3CC4CC4C3)nc2CC#N)c1 (stereo partly drawn) [Example 81, 1-[(6-{3-Azabicyclo[3.1.0]hexan-3-yl}-2-(cyanomethyl)-pyridin-3-yl)methyl]-N-[(4R)-1-methyl-1H,4H,5H,6H-cyclopenta[d]imidazol-4-yl]-1H-pyrazole-4-carboxamide]
3.8 | 603 | Cn1cnc2c1CC[C@H]2NC(=O)c1cnn(Cc2ccc(N3CC4CC4C3)cn2)c1 (stereo partly drawn) [Example 9, 1-[(5-{3-Azabicyclo[3.1.0]hexan-3-yl}pyridin-2-yl)methyl]-N-[(4R)-1-methyl-1H,4H,5H,6H-cyclopenta[d]imidazol-4-yl]-1H-pyrazole-4-carboxamide]
1.9 | 425 | Cn1cnc2c1CC[C@H]2NC(=O)c1cnn(Cc2ccc(N3CC4CC4C3)nc2C#N)c1 (stereo partly drawn) [Example 132, 1-[(6-{3-Azabicyclo[3.1.0]hexan-3-yl}-2-cyanopyridin-3-yl)methyl]-N-[(4R)-1-methyl-1H,4H,5H,6H-cyclopenta[d]imidazol-4-yl]-1H-pyrazole-4-carboxamide]
1 | 193 | CCc1nc(N2CC3CC3C2)ccc1Cc1cc(C(=O)N[C@@H]2CCc3c2ncn3C)n(C)n1 (stereo partly drawn) [Example 166, 3-[(6-{3-Azabicyclo[3.1.0]hexan-3-yl}-2-ethylpyridin-3-yl)methyl]-1-methyl-N-[(4R)-1-methyl-1H,4H,5H,6H-cyclopenta[d]imidazol-4-yl]-1H-pyrazole-5-carboxamide]
0.7 | 221 | Cn1cnc2c1CC[C@H]2NC(=O)c1cn(Cc2ccc(N3CC4CC4C3)nc2C(F)F)cn1 (stereo partly drawn) [Example 64, 1-[(6-{3-Azabicyclo[3.1.0]hexan-3-yl}-2-(difluoromethyl)-pyridin-3-yl)methyl]-N-[(4R)-1-methyl-1H,4H,5H,6H-cyclopenta[d]imidazol-4-yl]-1H-imidazole-4-carboxamide]
